# Values of other authors in publication PMC7930822, “Phase I Trial to Evaluate the Tolerance, Pharmacokinetics and Efficacy of the Broad-Spectrum ErbB Family Inhibitor Larotinib Mesylate in Patients With Advanced Solid Tumors” (Frontiers in Pharmacology, 2021).
# Counter-ions that a name gives are not always drawn.
# How the values were obtained:
# [1] = molecular target: Bruton’s tyrosine kinase (BTK); design: method as in data not published; conditions: ref data not published; cited from earlier work
# [2] = tested on: EGFR with a deletion in the exon 19; design: method as in data not published; conditions: ref data not published; cited from earlier work
# [3] = tested on: P-glycoprotein; conditions: cited from earlier work
smiles,measurement,setting,value
COc1cc2ncnc(Nc3ccc(F)c(Cl)c3)c2cc1OCCCN1C[C@@H]2OCCO[C@@H]2C1 [larotinib mesylate],IC50,[1],196 nM
same,inhibition,[2],potently inhibited
same,P-glycoprotein substrate,[3],substrate of P-glycoprotein
